This note sets out measurements from PubChem BioAssay AID308 (DTP/NCI, 2004).

This test has as its system BDF1 mice, L1210 6-MP/6-TG resistant leukemia ip, survival T/C. The test can be described thus: NCI In Vivo Anticancer Drug Screen. Data for tumor model L1210 Leukemia resistant to 6-MP and 6-Thioguanine; NSC 755, NSC 752 (intraperitoneal) in B6D2F1 (BDF1) mice. Particulars: endpoint: mean survival time, higher = longer survival. The procedure:
The antitumor activity of compounds was measured in mice bearing transplantable tumors. Survival or tumor size were measured and the results are expressed as the measurement made in the treated group (T) divided by the measurement made in the vehicle treated control group (C). The tumor model used in this assay is L1210 Leukemia resistant to 6-MP and 6-Thioguanine; NSC 755, NSC 752 (intraperitoneal) in B6D2F1 (BDF1) mice

The mark [1] stands for this setting: dose: 125.0 mg/kg/injection, schedule: Q01DX Z (ip), vehicle: carboxymethylcellulose (CMC).
[2] abbreviates: dose: 25.0 mg/kg/injection, schedule: Q01DX Z (ip), vehicle: carboxymethylcellulose (CMC).
Where [3] appears, read: dose: 75.0 mg/kg/injection, schedule: Q01DX Z (ip), vehicle: carboxymethylcellulose (CMC).
[4] abbreviates: dose: 100.0 mg/kg/injection, schedule: Q01DX Z (ip), vehicle: carboxymethylcellulose (CMC).
[5] abbreviates: dose: 50.0 mg/kg/injection, schedule: Q01DX Z (ip), vehicle: carboxymethylcellulose (CMC).

Inconclusive results and toxic doses are left out.

For the compound `OCC1OC(n2cnc3c(=S)nc[nH]c32)CC1O` (configuration not stated), the T/C is, setting by setting: (dose: 62.0 mg/kg/injection, schedule: Q01DX015 (ip), vehicle: carboxymethylcellulose (CMC)) 98 % of control; (dose: 125.0 mg/kg/injection, schedule: Q01DX015 (ip), vehicle: carboxymethylcellulose (CMC)) 96 % of control; (dose: 250.0 mg/kg/injection, schedule: Q01DX015 (ip), vehicle: carboxymethylcellulose (CMC)) 93 % of control.
In the case of `Nc1nc(F)nc2c1ncn2C1OC(CO)C(O)C1O` (configuration not stated), the T/C by setting is: (dose: 0.06 mg/kg/injection, schedule: Q01DX Z (ip), vehicle: saline) 109 % of control; (dose: 0.12 mg/kg/injection, schedule: Q01DX Z (ip), vehicle: saline) 104 % of control; (dose: 0.25 mg/kg/injection, schedule: Q01DX Z (ip), vehicle: saline) 106 % of control; (dose: 0.5 mg/kg/injection, schedule: Q01DX Z (ip), vehicle: saline) 101 % of control; (dose: 0.75 mg/kg/injection, schedule: Q01DX Z (ip), vehicle: saline) 119 % of control; (dose: 1.5 mg/kg/injection, schedule: Q01DX Z (ip), vehicle: saline) 107 % of control. Besides, the T/C by setting is: (dose: 3.0 mg/kg/injection, schedule: Q01DX Z (ip), vehicle: saline) 115 % of control; (dose: 6.0 mg/kg/injection, schedule: Q01DX Z (ip), vehicle: saline) 90 % of control.
Take `C[C@@H]1C[C@H]2CC[C@H](O2)[C@H](C)C(=O)O[C@@H](C)C[C@@H]2CC[C@@H](O2)[C@@H](C)C(=O)O[C@H](C)C[C@H]2CC[C@H](O2)[C@H](C)C(=O)O[C@@H](C)C[C@@H]2CC[C@@H](O2)[C@@H](C)C(=O)O1`: the T/C was 101 % of control (dose: 10.0 mg/kg/injection, schedule: Q01DX Z (ip), vehicle: other); 101 % of control (dose: 15.0 mg/kg/injection, schedule: Q01DX Z (ip), vehicle: other); 104 % of control (dose: 20.0 mg/kg/injection, schedule: Q01DX Z (ip), vehicle: other); 94 % of control (dose: 30.0 mg/kg/injection, schedule: Q01DX Z (ip), vehicle: other); 100 % of control (dose: 45.0 mg/kg/injection, schedule: Q01DX Z (ip), vehicle: carboxymethylcellulose (CMC)); 93 % of control (dose: 90.0 mg/kg/injection, schedule: Q01DX Z (ip), vehicle: carboxymethylcellulose (CMC)). For the same compound, the T/C was 96 % of control (dose: 180.0 mg/kg/injection, schedule: Q01DX Z (ip), vehicle: carboxymethylcellulose (CMC)) and 95 % of control (dose: 360.0 mg/kg/injection, schedule: Q01DX Z (ip), vehicle: carboxymethylcellulose (CMC)).
Take `S=c1nc[nH]c2c1ncn2CN1CCCCC1`: the T/C (dose: 50.0 mg/kg/injection, schedule: Q01DX009 (ip), vehicle: other) is 94 % of control.
For the compound `S=c1nc[nH]c2c1ncn2C1CCCCO1` (configuration not stated), the T/C is, setting by setting: (dose: 16.0 mg/kg/injection, schedule: Q01DX Z (ip), vehicle: carboxymethylcellulose (CMC)) 104 % of control; (dose: 31.0 mg/kg/injection, schedule: Q01DX Z (ip), vehicle: carboxymethylcellulose (CMC)) 104 % of control; (dose: 62.0 mg/kg/injection, schedule: Q01DX Z (ip), vehicle: carboxymethylcellulose (CMC)) 107 % of control; under setting [1], 96 % of control.
In the case of `Nc1nc(=S)c2ncn(C3OC(COC(=O)c4ccc(Cl)cc4)C(OC(=O)c4ccc(Cl)cc4)C3OC(=O)c3ccc(Cl)cc3)c2[nH]1` (configuration not stated), the T/C is, setting by setting: (dose: 6.25 mg/kg/injection, schedule: Q01DX015 (ip), vehicle: carboxymethylcellulose (CMC)) 88 % of control; (dose: 12.5 mg/kg/injection, schedule: Q01DX015 (ip), vehicle: carboxymethylcellulose (CMC)) 87 % of control; (dose: 100.0 mg/kg/injection, schedule: Q01DX015 (ip), vehicle: carboxymethylcellulose (CMC)) 86 % of control.
As to `CCCSc1nc(N)nc2nc[nH]c12`, the T/C by setting is: (dose: 12.0 mg/kg/injection, schedule: Q01DX Z (ip), vehicle: saline) 114 % of control; (dose: 25.0 mg/kg/injection, schedule: Q01DX Z (ip), vehicle: saline) 106 % of control; (dose: 50.0 mg/kg/injection, schedule: Q01DX Z (ip), vehicle: saline) 107 % of control; (dose: 100.0 mg/kg/injection, schedule: Q01DX Z (ip), vehicle: saline) 103 % of control; (dose: 150.0 mg/kg/injection, schedule: Q01DX Z (ip), vehicle: carboxymethylcellulose (CMC)) 91 % of control.
As to `O=c1[nH]c(=O)n(C2CC(O)C(CO)O2)cc1I` (configuration not stated), the T/C (dose: 20.0 mg/kg/injection, schedule: Q01DX Z (ip), vehicle: carboxymethylcellulose (CMC)) is 108 % of control; the T/C under setting [2] was 121 % of control; the T/C (dose: 30.0 mg/kg/injection, schedule: Q01DX Z (ip), vehicle: carboxymethylcellulose (CMC)) is 95 % of control; the T/C (dose: 40.0 mg/kg/injection, schedule: Q01DX Z (ip), vehicle: carboxymethylcellulose (CMC)) was 87 % of control; the T/C (dose: 60.0 mg/kg/injection, schedule: Q01DX Z (ip), vehicle: carboxymethylcellulose (CMC)) is 108 % of control; the T/C under setting [3] is 182 % of control. In addition, the T/C reads like this: under setting [4], 154 % of control; under setting [1], 115 % of control; (dose: 250.0 mg/kg/injection, schedule: Q01DX Z (ip), vehicle: carboxymethylcellulose (CMC)) 100 % of control; (dose: 375.0 mg/kg/injection, schedule: Q01DX Z (ip), vehicle: carboxymethylcellulose (CMC)) 93 % of control.
Take `Nc1nc(=S)c2ncn(C3OC(CO)CC3O)c2[nH]1` (configuration not stated): the T/C runs as follows: (dose: 1.5 mg/kg/injection, schedule: Q01DX009 (ip), vehicle: other) 99 % of control; (dose: 3.0 mg/kg/injection, schedule: Q01DX009 (ip), vehicle: other) 99 % of control; (dose: 6.0 mg/kg/injection, schedule: Q01DX009 (ip), vehicle: other) 107 % of control; (dose: 12.5 mg/kg/injection, schedule: Q01DX015 (ip), vehicle: other) 87 % of control.
Turning to `Nc1nc(=S)c2ncn(C3OC(CO)C(O)C3O)c2[nH]1` (configuration not stated), the T/C is, setting by setting: (dose: 3.75 mg/kg/injection, schedule: Q01DX Z (ip), vehicle: carboxymethylcellulose (CMC)) 96 % of control; (dose: 5.0 mg/kg/injection, schedule: Q01DX Z (ip), vehicle: carboxymethylcellulose (CMC)) 93 % of control; (dose: 7.5 mg/kg/injection, schedule: Q01DX Z (ip), vehicle: carboxymethylcellulose (CMC)) 107 % of control; (dose: 10.0 mg/kg/injection, schedule: Q01DX Z (ip), vehicle: carboxymethylcellulose (CMC)) 93 % of control.
In the case of `N#[N+]c1cnc([O-])[nH]c1=O`, the T/C was 166 % of control (dose: 5.0 mg/kg/injection, schedule: Q01DX Z (ip), vehicle: alkali diluted with saline); 177 % of control (dose: 7.5 mg/kg/injection, schedule: Q01DX Z (ip), vehicle: alkali diluted with saline); 150 % of control (dose: 10.0 mg/kg/injection, schedule: Q01DX Z (ip), vehicle: alkali diluted with saline); 95 % of control (dose: 15.0 mg/kg/injection, schedule: Q01DX Z (ip), vehicle: alkali diluted with saline).
Consider `CN(C)C(=S)N=Nc1c(O)[nH]c2ccccc12`, for which the T/C by setting is: under setting [2], 107 % of control; under setting [5], 105 % of control; under setting [4], 91 % of control.
With `N#CCSc1ncnc2nc[nH]c12`, the T/C is, setting by setting: (dose: 12.5 mg/kg/injection, schedule: Q01DX Z (ip), vehicle: carboxymethylcellulose (CMC)) 86 % of control; under setting [2], 88 % of control; (dose: 37.5 mg/kg/injection, schedule: Q01DX Z (ip), vehicle: carboxymethylcellulose (CMC)) 87 % of control; under setting [3], 90 % of control; under setting [4], 100 % of control.
As for `Nn1cnc2c(=S)nc[nH]c21`, the T/C runs as follows: (dose: 18.0 mg/kg/injection, schedule: Q01DX009 (ip), vehicle: other) 98 % of control; (dose: 28.0 mg/kg/injection, schedule: Q01DX009 (ip), vehicle: other) 96 % of control; (dose: 42.0 mg/kg/injection, schedule: Q01DX015 (ip), vehicle: other) 99 % of control; (dose: 72.0 mg/kg/injection, schedule: Q01DX015 (ip), vehicle: other) 92 % of control.
With `c1nc(SC2=NCCN2)c2[nH]cnc2n1`, the T/C runs as follows: (dose: 6.25 mg/kg/injection, schedule: Q01DX Z (ip), vehicle: saline) 98 % of control; (dose: 12.5 mg/kg/injection, schedule: Q01DX Z (ip), vehicle: saline) 93 % of control.
In the case of `CC(=O)OCC1OC(n2cnc3c(=S)nc[nH]c32)C(OC(C)=O)C1OC(C)=O` (configuration not stated), the T/C was 104 % of control under setting [2]; 111 % of control under setting [5]; 108 % of control under setting [4]; 98 % of control (dose: 200.0 mg/kg/injection, schedule: Q01DX Z (ip), vehicle: carboxymethylcellulose (CMC)).
